Results from US20220202739A1, “ENDOCANNABINOID MIMETIC AND ANTI-INFLAMMATORY COMPOUND CONTAINING COMPOSITIONS, METHODS OF PREPARATION AND USES THEREOF” (priority 2019, published 2022).
Where two headings read alike, the source gives them in different places.

Legend:
[1] = test system: TRPM8; experiment: Gene expression custom microarray, human skin fibroblasts (Example 1): TRPM8; type: cell-based; conditions: 24 hr; for fold induction at 10 µM: Skin fibroblast, read-out: TRPM8↑ gene expression, fold increase or decrease vs untreated cells
Text: (§1) Cell cultures: A human skin fibroblast cell culture (or cultures) was obtained through the Coriell Cell Repository from the National Institute on Aging Cell Repository (Camden, N.J.), or Promocell GmbH (Heidelberg, Germany). The initial culture was selected from the following cell lines: AG13066, AG11557, AG11796 or GM03651E. The cell lines were derived from donors as follows:
(§2) Experimental phase: When the appropriate quantity of cells had been grown, they were detached as described above, but at the final step were seeded into each well of one or more 6 well dishes. Each well received 2 ml of the cell suspension so they were seeded equally. The dishes were returned to the incubator until 85-95% confluency was reached.
(§3) It is at this stage that all wells were rinsed in PBS after aspirating the growth media. The compound(s) to be tested were previously mixed into a suitable solvent (e.g., DMSO or ethanol) that can be diluted to the desired concentration of test compound (10 μl) in the culture wells without exceeding maximum solvent concentrations and adversely effecting cell viability, and mixed with basal media. NOTE: Standard maximum levels of solvent are 0.1% for DMSO and 0.5% for ETOH. The concentration of each test compound is found in Tables 1 & 2.
(§4) Every 2 wells on the 6 well plate served as a biological replicate for the purposes of RNA isolation and genetic expression evaluations making each 6 well dish an n=3 for the test compound(s) contained in the media. Negative control plates (no test compound(s) and only basal media) were also generated. The plates were returned to the incubator for 24 hrs.
(§5) At the end of the 24 hr time period, the plates were removed from the incubator, the test media aspirated, and the cells rinsed with PBS. RNA isolation is performed using the BioRad Aurum Total RNA Mini Kit (Hercules, Calif.) per manufacturer's protocol; which is described, in brief, below: • Add 350 μl of lysis buffer to each well. Pipet multiple times to ensure thorough lysis. Add lysed cells to the collection tube. • Add 350 μl of 70% ETOH to the collection tube and mix thoroughly. • Pipet the generated lysate onto the spin column placed in a new 2 ml tube. Centrifuge for 30 sec between 8,000 and 10,000 g. • Place the spin column containing the now bound RNA, in a new 2 ml tube. Add 700 μl of low stringency wash solution to the spin column. Centrifuge for 30 sec between 8,000 and 10,000 g. Discard the flow through and replace spin column. • Add 80 μl of DNase I dilution to the spin column and incubate at room temperature for 15 minutes. • Add 700 μl of high stringency wash solution to the column and centrifuge for 30 sec between 8,000 and 10,000 g. Discard flow through. • Add 700 μl of low stringency wash solution to the column and centrifuge for 60 sec between 8,000 and 10,000 g. Discard flow through. • Centrifuge for 2 minutes to remove residual wash solution. • Transfer spin column to new 1.5 ml collection tube and add 80 μl of elution solution to the column. Allow 1 minute for saturation of the membrane and then centrifuge for 2 minutes to complete the RNA elution. • Quantify the quantity of RNA and store at −20 C° until use (no more than 1 month)
(§6) The genes tested were: • Cannabinoid receptor 1 (CB1(CNR1)) • Cannabinoid receptor 2 (CB2 (CNR2)) • Fatty acid amide hydrolase (FAAH) • Monoacylglycerol lipase (MGLL, i.e., MAGL) • Peroxisome proliferator-activated receptor gamma (PPARG) • Nuclear factor kappa-light-chain-enhancer of activated B cells (NFκβ) • Interleukin 1 Alpha (IL1alpha) • Cyclooxygenase 1 (PTGS1, i.e., COX1) • Transient receptor potential cation channel subfamily A member 1 (TRPA1) • Transient receptor potential cation channel subfamily V member 1 (TRPV1) • Transient receptor potential cation channel subfamily M member 8 (TRPM8) • Hemoglobin Subunit Beta (HBB) REFERENCE GENE • Ribosomal Protein L13a (RPL13A) REFERENCE GENE […]

[2] = test system: CNR2; experiment: Gene expression custom microarray, human skin fibroblasts (Example 1): CNR2; type: cell-based; conditions: for fold induction at 10 µM: Skin fibroblast, read-out: CNR2↑ gene expression, fold increase or decrease vs untreated cells
Text: as §1, §2, §3, §4, §5, §6

[3] = human skin fibroblasts, 10 uM, 24 hr

Row | SMILES | fold induction at 10 µM [1] | fold induction at 10 µM ([2]; Homo sapiens, 24 h) | TRPM8↑ gene expression, fold increase or decrease vs untreated cells ([1]; 10 uM) [fold] | CNR2↑ gene expression, fold increase or decrease vs untreated cells [2, 3] [fold] | fold induction at 10 µM [2, 3]
1 | C=C(C)[C@@H]1CCC(C)=C[C@H]1c1c(O)cc(CCCCC)cc1O [CBD, cannabidiol, reference compound] | 6.1 | 1.7 |  |  | 
2 | CCCCCCCCCCCCCCCC(=O)NCCO [N-palmitoylethanolamide] |  |  | 5.1 | 3.9 | 
3 | CC(C)[C@]12O[C@H]1[C@@H]1O[C@]13[C@]1(O[C@H]1C[C@H]1C4=C(CC[C@@]13C)C(=O)OC4)[C@@H]2O [Triptolide] | 47.6 |  |  |  | 10.1
